Measurements published in PubChem BioAssay AID248 (DTP/NCI, 2004).
Several values for one entry are separate records, joined by “and”; a condition that tells them apart may be missing. Identical values can stand only once. Toxic doses and inconclusive results are not listed. No stated cut-off is given here; in the data, active means T/C of 150% or more; inactive means T/C below 125%.

Tested on: L1210 leukemia ip in BDF1 mice, survival T/C
Assay: NCI In Vivo Anticancer Drug Screen. Data for tumor model L1210 Leukemia (intraperitoneal) in B6D2F1 (BDF1) mice
Settings: endpoint: mean survival time, higher = longer survival
Summary of the method: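 Read-out is survival time, reported as the treated-group measurement over the vehicle-control measurement.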

[1] = dose: 25.0 mg/kg/injection, schedule: Q04DX003 (ip), vehicle: Klucel (hydroxypropylcellulose) (HPC)
[2] = dose: 50.0 mg/kg/injection, schedule: Q04DX003 (ip), vehicle: Klucel (hydroxypropylcellulose) (HPC)
[3] = dose: 100.0 mg/kg/injection, schedule: Q01DX001 (ip), vehicle: Klucel (hydroxypropylcellulose) (HPC)
[4] = dose: 100.0 mg/kg/injection, schedule: Q04DX003 (ip), vehicle: Klucel (hydroxypropylcellulose) (HPC)
[5] = dose: 100.0 mg/kg/injection, schedule: Q04DX003 (ip), vehicle: saline
[6] = dose: 200.0 mg/kg/injection, schedule: Q04DX003 (ip), vehicle: saline
[7] = dose: 400.0 mg/kg/injection, schedule: Q04DX003 (ip), vehicle: saline
[8] = dose: 200.0 mg/kg/injection, schedule: Q04DX003 (ip), vehicle: Klucel (hydroxypropylcellulose) (HPC)
[9] = dose: 400.0 mg/kg/injection, schedule: Q04DX003 (ip), vehicle: Klucel (hydroxypropylcellulose) (HPC)
[10] = dose: 100.0 mg/kg/injection, schedule: Q04DX002 (ip), vehicle: saline
[11] = dose: 200.0 mg/kg/injection, schedule: Q04DX002 (ip), vehicle: saline
[12] = dose: 100.0 mg/kg/injection, schedule: Q04DX002 (ip), vehicle: Klucel (hydroxypropylcellulose) (HPC)
[13] = dose: 200.0 mg/kg/injection, schedule: Q04DX002 (ip), vehicle: Klucel (hydroxypropylcellulose) (HPC)
[14] = dose: 400.0 mg/kg/injection, schedule: Q04DX002 (ip), vehicle: Klucel (hydroxypropylcellulose) (HPC)

Measured: T/C

CCCCN1CC1CC (stereo not given)
inactive: [1] 105 % of control | [2] 95 % of control | [3] 108 % of control | [4] 103 % of control

Nc1ccc(CSc2ccccc2)cc1F
inactive: dose: 100.0 mg/kg/injection, schedule: Q01DX009 (ip), vehicle: saline + alcohol 94 % of control | dose: 200.0 mg/kg/injection, schedule: Q01DX009 (ip), vehicle: saline + alcohol 93 % of control | dose: 400.0 mg/kg/injection, schedule: Q01DX009 (ip), vehicle: saline + alcohol 86 % of control

CC(C)C(O)C1(C)CC1 (stereo not given)
inactive: dose: 100.0 mg/kg/injection, schedule: Q01DX009 (ip), vehicle: saline with Tween-80 96 % of control | [5] 106 % of control | dose: 200.0 mg/kg/injection, schedule: Q01DX009 (ip), vehicle: saline with Tween-80 95 % of control | [6] 107 % of control | [7] 111 % of control

C/C(=C/c1c(C)c([N+](=O)[O-])c(C)c(C)c1[N+](=O)[O-])C(=O)O
inactive: [3] 100 % of control | [4] 114 % of control | dose: 200.0 mg/kg/injection, schedule: Q01DX001 (ip), vehicle: Klucel (hydroxypropylcellulose) (HPC) 91 % of control | [8] 97 % of control | dose: 400.0 mg/kg/injection, schedule: Q01DX001 (ip), vehicle: Klucel (hydroxypropylcellulose) (HPC) 107 % of control | [9] 101 % of control

CCOC(=O)c1ccc(C(C)=O)o1
inactive: [4] 100 % of control | [8] 106 % of control | [9] 94 % of control

C/C=C/C=C\COC(=O)C1CC1
inactive: [10] 116 % of control | [11] 121 % of control

CN(NC(=O)c1ccccc1)C(=O)c1ccccc1
inactive: dose: 12.5 mg/kg/injection, schedule: Q04DX003 (ip), vehicle: Klucel (hydroxypropylcellulose) (HPC) 106 % of control | [1] 104 % of control | [2] 103 % of control | [4] 108 % of control | dose: 130.0 mg/kg/injection, schedule: Q04DX003 (ip), vehicle: Klucel (hydroxypropylcellulose) (HPC) 100 % of control | [8] 103 % of control | dose: 300.0 mg/kg/injection, schedule: Q04DX003 (ip), vehicle: Klucel (hydroxypropylcellulose) (HPC) 113 % of control

COc1cccc(C=NC2CC(C)CCC2C)c1OC (stereo not given)
inactive: dose: 50.0 mg/kg/injection, schedule: Q04DX002 (ip), vehicle: saline with Tween-80 90 % of control | dose: 100.0 mg/kg/injection, schedule: Q04DX002 (ip), vehicle: saline with Tween-80 93 % of control | dose: 200.0 mg/kg/injection, schedule: Q04DX002 (ip), vehicle: saline with Tween-80 87 % of control | dose: 400.0 mg/kg/injection, schedule: Q04DX002 (ip), vehicle: saline with Tween-80 90 % of control

Nc1c(Cl)cc(I)cc1C(=O)O
inactive: [12] 94 % of control | [13] 102 % of control | [14] 102 % of control

CC(=O)OC1C=CCC23C(=O)C=CC(=O)C12C(=O)c1ccccc1C3=O (stereo not given)
inactive: dose: 0.25 mg/kg/injection, schedule: Q04DX003 (ip), vehicle: water 95 % of control | dose: 0.5 mg/kg/injection, schedule: Q04DX003 (ip), vehicle: water 100 % of control | dose: 1.0 mg/kg/injection, schedule: Q04DX003 (ip), vehicle: water 102 % of control | dose: 2.0 mg/kg/injection, schedule: Q04DX003 (ip), vehicle: water 97 % of control | dose: 4.0 mg/kg/injection, schedule: Q04DX003 (ip), vehicle: water 102 % of control | dose: 8.0 mg/kg/injection, schedule: Q04DX003 (ip), vehicle: water 100 % of control | dose: 16.0 mg/kg/injection, schedule: Q04DX003 (ip), vehicle: saline 102 % of control | dose: 16.0 mg/kg/injection, schedule: Q04DX003 (ip), vehicle: water 97 % of control | dose: 32.0 mg/kg/injection, schedule: Q04DX003 (ip), vehicle: saline 100 % of control | dose: 64.0 mg/kg/injection, schedule: Q04DX003 (ip), vehicle: saline 100 % of control

Clc1ccc(C[P+](c2ccccc2)(c2ccccc2)c2ccccc2)cc1Cl
inactive: dose: 0.62 mg/kg/injection, schedule: Q01DX009 (ip), vehicle: acetone 98 % of control | dose: 1.25 mg/kg/injection, schedule: Q01DX009 (ip), vehicle: acetone 101 % of control | dose: 2.5 mg/kg/injection, schedule: Q01DX009 (ip), vehicle: acetone 101 % of control | dose: 2.5 mg/kg/injection, schedule: Q04DX003 (ip), vehicle: acetone 94 % of control | dose: 3.6 mg/kg/injection, schedule: Q01DX009 (ip), vehicle: saline with Tween-80 97 % of control | dose: 5.0 mg/kg/injection, schedule: Q01DX001 (ip), vehicle: acetone 90 % of control | dose: 5.6 mg/kg/injection, schedule: Q01DX009 (ip), vehicle: saline with Tween-80 106 % of control | dose: 8.4 mg/kg/injection, schedule: Q01DX009 (ip), vehicle: saline with Tween-80 102 % of control | dose: 10.0 mg/kg/injection, schedule: Q01DX001 (ip), vehicle: acetone 97 % of control

Cc1ncc(COCc2ccccc2)c(CO)c1OCc1ccccc1
inactive: dose: 100.0 mg/kg/injection, schedule: Q01DX001 (ip), vehicle: carboxymethylcellulose (CMC) 92 % of control | dose: 200.0 mg/kg/injection, schedule: Q01DX001 (ip), vehicle: carboxymethylcellulose (CMC) 94 % of control | dose: 400.0 mg/kg/injection, schedule: Q01DX001 (ip), vehicle: carboxymethylcellulose (CMC) 94 % of control

CC1(C)CC(=O)C=C(NCc2ccccc2)C1
inactive: dose: 50.0 mg/kg/injection, schedule: Q01DX009 (ip), vehicle: acetone 96 % of control | dose: 100.0 mg/kg/injection, schedule: Q01DX009 (ip), vehicle: acetone 95 % of control | dose: 200.0 mg/kg/injection, schedule: Q01DX009 (ip), vehicle: acetone 101 % of control

CCCOc1ccc(C2=NCC(C)S2)c(C)c1 (stereo not given)
inactive: dose: 12.5 mg/kg/injection, schedule: Q01DX009 (ip), vehicle: Klucel (hydroxypropylcellulose) (HPC) 94 % of control | dose: 25.0 mg/kg/injection, schedule: Q01DX009 (ip), vehicle: Klucel (hydroxypropylcellulose) (HPC) 91 % of control | dose: 50.0 mg/kg/injection, schedule: Q01DX009 (ip), vehicle: Klucel (hydroxypropylcellulose) (HPC) 98 % of control and 90 % of control | dose: 100.0 mg/kg/injection, schedule: Q01DX005 (ip), vehicle: Klucel (hydroxypropylcellulose) (HPC) 101 % of control | dose: 200.0 mg/kg/injection, schedule: Q01DX005 (ip), vehicle: Klucel (hydroxypropylcellulose) (HPC) 89 % of control

NCC(N)C(=O)O (stereo not given)
inactive: dose: 100.0 mg/kg/injection, schedule: Q01DX001 (ip), vehicle: saline 94 % of control | dose: 200.0 mg/kg/injection, schedule: Q01DX001 (ip), vehicle: saline 97 % of control | dose: 400.0 mg/kg/injection, schedule: Q01DX001 (ip), vehicle: saline 94 % of control

COc1ccc(N=C(CCl)Nc2ccc(OC)cc2)cc1
inactive: [12] 94 % of control | [13] 88 % of control | [14] 109 % of control

C1COC(COCC2CO2)C1 (stereo not given)
inactive: dose: 100.0 mg/kg/injection, schedule: Q01DX009 (ip), vehicle: saline 100 % of control | [10] 98 % of control and 100 % of control and 120 % of control | [5] 99 % of control | dose: 200.0 mg/kg/injection, schedule: Q01DX009 (ip), vehicle: saline 92 % of control | [11] 103 % of control and 109 % of control and 111 % of control | [6] 98 % of control | dose: 400.0 mg/kg/injection, schedule: Q01DX009 (ip), vehicle: saline 93 % of control | dose: 400.0 mg/kg/injection, schedule: Q04DX002 (ip), vehicle: saline 98 % of control and 102 % of control (2×) | [7] 105 % of control

O=C(O)C1CSC2(CCCCC2)N1 (stereo not given)
inactive: [5] 93 % of control | [6] 98 % of control | [7] 89 % of control
